Reference: patent publication US7569570B2, “Thienopyrimidines, process for preparing the same and use thereof” (Takeda Pharmaceutical Company Limited, priority 2002, dated 2009)

| melting point [°C] | Compound |
| --- | --- |
| 180 to 181 | CCNC(=O)Nc1ccc(-c2sc3c(c2CN(C)CCN(C)C(C)=O)c(=O)n(-c2ccccc2)c(=O)n3Cc2c(F)cccc2F)cc1 [Example 27, N-{2-[{[1-(2,6-difluorobenzyl)-6-(4-{[(ethylamino)carbonyl]amino}phenyl)-2,4-dioxo-3-phenyl-1,2,3,4-tetrahydrothieno[2,3-d]pyrimidin-5-yl]methyl}(methyl)amino]ethyl}-N-methylacetamide] |
| 237 to 239 | CCNC(=O)Nc1ccc(-c2sc3c(c2CN(C)CCC(=O)NC)c(=O)n(-c2ccc(F)cc2)c(=O)n3Cc2c(F)cccc2F)cc1 [Example 30] |
| 243 to 244 | CCNC(=O)Nc1ccc(-c2sc3c(c2CN(C)Cc2ccccn2)c(=O)n(-c2ccc(F)cc2)c(=O)n3Cc2c(F)cccc2F)cc1 [Example 114] |
| 233 to 234 | CCNC(=O)Nc1ccc(-c2sc3c(c2CN(C)CC2CCN(C)C2=O)c(=O)n(-c2ccc(F)cc2)c(=O)n3Cc2c(F)cccc2F)cc1 (stereo not shown) [Example 36, N-(4-[1-(2,6-difluorobenzyl)-3-(4-fluorophenyl)-5-({methyl[(1-methyl-2-oxo-3-pyrrolidinyl)methyl]amino}methyl)-2,4-dioxo-1,2,3,4-tetrahydrothieno[2,3-d]pyrimidin-6-yl]phenyl}-N′-ethylurea] |
| 240 to 244 | CCNC(=O)Nc1ccc(-c2sc3c(c2CN(C)CCC(=O)NCCOC)c(=O)n(-c2ccccc2)c(=O)n3Cc2c(F)cccc2F)cc1 [Example 95, 3-[{[1-(2,6-difluorobenzyl)-6-(4-{[(ethylamino)carbonyl]amino}phenyl)-2,4-dioxo-3-phenyl-1,2,3,4-tetrahydrothieno[2,3-d]pyrimidin-5-yl]methyl}(methyl)amino]-N-(2-methoxyethyl)propanamide] |
| 205 to 207 | CCNC(=O)Nc1ccc(-c2sc3c(c2CN(C)CCOC)c(=O)n(-c2ccc(N)cc2)c(=O)n3Cc2c(F)cccc2F)cc1 [Example 97, N-[4-(3-(4-aminophenyl)-1-(2,6-difluorobenzyl)-5-{[2-methoxyethyl(methyl)amino]methyl}-2,4-dioxo-1,2,3,4-tetrahydrothieno[2,3-d]pyrimidin-6-yl)phenyl]-N′-ethylurea] |
| 215 to 218 | CCNC(=O)Nc1ccc(-c2sc3c(c2CN(C)CCOC)c(=O)n(-c2ccc(OCCOC)cc2)c(=O)n3Cc2c(F)cccc2F)cc1 [Example 104] |
| 206 to 208 | CCNC(=O)Nc1ccc(-c2sc3c(c2CN(C)CCOC)c(=O)n(-c2ccc(OCCOC)c(OCCOC)c2)c(=O)n3Cc2c(F)cccc2F)cc1 [Example 101, N-[4-(3-[3,4-bis(2-methoxyethoxy)phenyl]-1-(2,6-difluorobenzyl)-5-{[(2-methoxyethyl)(methyl)amino]methyl}-2,4-dioxo-1,2,3,4-tetrahydrothieno[2,3-d]pyrimidin-6-yl)phenyl]-N′-ethylurea] |
| 221 to 223 | CCNC(=O)Nc1ccc(-c2sc3c(c2CNCCOC)c(=O)n(-c2ccccc2)c(=O)n3Cc2c(F)cccc2F)cc1 [Example 2, N-[4-(1-(2,6-difluorobenzyl)-5-{[(2-methoxyethyl)amino]methyl}-2,4-dioxo-3-phenyl-1,2,3,4-tetrahydrothieno[2,3-d]pyrimidin-6-yl)phenyl]-N′-ethylurea] |
| 210 to 213 | CCNC(=O)Nc1ccc(-c2sc3c(c2CN(C)C2CCCC2)c(=O)n(-c2ccccc2)c(=O)n3Cc2c(F)cccc2F)cc1 [Example 93, N-{4-[5-{[cyclopentyl(methyl)amino]methyl}-1-(2,6-difluorobenzyl)-2,4-dioxo-3-phenyl-1,2,3,4-tetrahydrothieno[2,3-d]pyrimidin-6-yl]phenyl}-N′-ethylurea] |
| 203 to 204 | CCNC(=O)Nc1ccc(-c2sc3c(c2CN(C)Cc2ccccn2)c(=O)n(-c2ccccc2)c(=O)n3Cc2c(F)cccc2F)cc1 [Example 113] |
| 212 to 215 | CCNC(=O)Nc1ccc(-c2sc3c(c2CN(C)CCOC)c(=O)n(-c2ccc(OCCOC(C)=O)cc2)c(=O)n3Cc2c(F)cccc2F)cc1 [Example 107, 2-[4-(1-(2,6-difluorobenzyl)-6-(4-{[(ethylamino)carbonyl]amino}phenyl)-5-([(2-methoxyethyl(methyl)amino)methyl]-2,4-dioxo-1,2,3,4-tetrahydrothieno[2,3-d]pyrimidin-3(2H)-yl}phenoxy)ethyl acetate] |
| 198 to 200 | CCNC(=O)Nc1ccc(-c2sc3c(c2CN(C)CCC(=O)OCC)c(=O)n(-c2ccccc2)c(=O)n3Cc2c(F)cccc2F)cc1 [Example 4, ethyl 3-[{[1-(2,6-difluorobenzyl)-6-(4-{[(ethylamino)carbonyl]amino}phenyl)-2,4-dioxo-3-phenyl-1,2,3,4-tetrahydrothieno[2,3-d]pyrimidin-5-yl]methyl}(methyl)amino]propanate] |
| 216 to 218 | CCNC(=O)Nc1ccc(-c2sc3c(c2CN(C)CCN(C)S(C)(=O)=O)c(=O)n(-c2ccccc2)c(=O)n3Cc2c(F)cccc2F)cc1 [Example 23, N-{2-[{[1-(2,6-difluorobenzyl)-6-(4-{[(ethylamino)carbonyl]amino)phenyl)-2,4-dioxo-3-phenyl-1,2,3,4-tetrahydrothieno[2,3-d]pyrimidin-5-yl]methyl}(methyl)amino]ethyl}-N-methylmethanesulfonamide] |
| 228 to 230 | CCNC(=O)Nc1ccc(-c2sc3c(c2CN(C)CCN(C)S(C)(=O)=O)c(=O)n(-c2ccc(F)cc2)c(=O)n3Cc2c(F)cccc2F)cc1 [Example 37, N-{2-[{[1-(2,6-difluorobenzyl)-6-(4-{[(ethylamino)carbonyl]amino}phenyl)-3-(4-fluorophenyl)-2,4-dioxo-1,2,3,4-tetrahydrothieno[2,3-d]pyrimidin-5-yl]methyl}(methyl)amino]ethyl}-N-methylsulfonamide] |
| 163 to 165 | CCNC(=O)Nc1ccc(-c2sc3c(c2CN(C)CCC(=O)NC)c(=O)n(-c2ccc(OCCOC)cc2)c(=O)n3Cc2c(F)cccc2F)cc1 [Example 31] |
| 192 to 193 | CCNC(=O)Nc1ccc(-c2sc3c(c2CN(C)CCNC)c(=O)n(-c2ccccc2)c(=O)n3Cc2c(F)cccc2F)cc1 [Example 26, N-{4-[1-(2,6-difluorobenzyl)-5-({methyl[2-(methylamino)ethyl]amino}methyl)-2,4-dioxo-3-phenyl-1,2,3,4-tetrahydrothieno[2,3-d]pyrimidin-6-yl)phenyl}-N′-ethylurea] |
| 210 to 212 | CCNC(=O)Nc1ccc(-c2sc3c(c2CN(C)C2CCCCC2)c(=O)n(-c2ccccc2)c(=O)n3Cc2c(F)cccc2F)cc1 [Example 91, N-{4-[5-{[cyclohexyl(methyl)amino]methyl}-1-(2,6-difluorobenzyl)-2,4-dioxo-3-phenyl-1,2,3,4-tetrahydrothieno[2,3-d]pyrimidin-6-yl]phenyl}-N′-ethylurea] |
| 215 to 218 | CCNC(=O)Nc1ccc(-c2sc3c(c2CN(C)CCC(=O)N(C)C)c(=O)n(-c2ccc(OCCOC)cc2)c(=O)n3Cc2c(F)cccc2F)cc1 [Example 100, 3-[({1-2,6-(difluorobenzyl)-6-(4-{[(ethylamino)carbonyl]amino}phenyl)-3-[4-(2-methoxyethoxy)phenyl]-2,4-dioxo-1,2,3,4-tetrahydrothieno[2,3-d]pyrimidin-5-yl)methyl)(methyl)amino)-N,N-dimethylpropanamide] |
